Data published in PMC8910649, “An Efficient Way to Screen Inhibitors of Energy-Coupling Factor (ECF) Transporters in a Bacterial Uptake Assay” (International Journal of Molecular Sciences, 2022).
≈ marks a conversion by molar mass, not a printed value. Like-named read-outs stand apart in the source and are kept apart here.

Assays:
ECF FolT2 transporter = settings: cited from earlier work
ECF FolT transporter = experiment: Bacterial (whole-cell) folate uptake assay in L. casei; settings: for Inhibition at 200 μM: folate import
Procedure: The OD600 was measured in a Nanodrop 2000c spectrophotometer (Thermo Fisher Scientific, Waltham, MA, USA) using half-micro cuvettes. The culture was diluted to OD600 = 0.06 in 25 mL and grown under the same conditions as before for 16 h. The new overnight culture was diluted to OD600 = 0.4 in 25 mL MRS medium and regrown in a 50 mL reaction tube for 2 h under the same conditions. The culture was subsequently centrifuged, washed with 50 mL PBS (50 mM, pH 7.4), centrifuged again, and resuspended in citrate buffer (20 mM, pH 6, 2% D-Glucose, 8 g/L NaCl, 0.2 g/L KCl) while adjusting the OD600 to 0.5. Then, 185 μL of this cell suspension was subsequently distributed on an opaque MultiScreen HTS Filter Plate-GV (Merck KGaA, Darmstadt, Germany). For each plate, two wells containing buffer for blank determination were included. A stock solution of compounds in DMSO (10 μL) was added to the wells and mixed (final DMSO conc. = 5%), followed by a preincubation at RT for 10 min. The solubility of the compounds in citrate buffer was verified in 96-well plates. Poorly soluble compounds were tested at the highest possible concentration. In addition, for each plate, four negative controls containing DMSO instead of inhibitor and a positive control were included. Tritium-labeled folic acid (Moravek Biochemicals, Brea, CA, USA) (5 μL, 2 μM, radioactivity was adjusted to 12.7 Ci/mmol using unlabeled folic acid) was added to the wells leading to a final concentration of 50 nM. The solutions were mixed (final volume 200 μL) as before, and the plate was incubated in a preheated incubator at 30 °C for 30 min. The plate was covered with sealing tape during the incubation steps to avoid evaporation. To stop the reaction, the liquid in the filter plates was removed from the cells by centrifugation (3 min at 1500× g). Subsequently, the cells were washed twice with PBS (10 mM, pH 7.2), followed by centrifugation steps (3 and 5 min at 1500× g). After removal of the underdrain, residual liquid on the bottom of the filters was removed using lint-free paper towels and the plate was dried at 50 °C in the incubator. After 10 min, 30 μL of liquid scintillating fluid was added into each well, the plate was covered with sealing tape and gently vortexed for 5 min. Relative radioactivity was determined for 1 min each well in a Wallac MicroBeta TriLux BetaCounter (Perkin Elmer, Waltham, MA, USA). […] Counts were averaged and after subtraction of the blank, the percentage of inhibition was determined by the following formula: Inh. %=100-x inhibitor/x negative control×100 The data were plotted including standard deviations. IC50 values were determined by plotting percentages of inhibition against the related concentrations and fitting the Origin standard function “Hill1” to the data. The KM was determined by plotting the relative radioactivity against the folic acid concentration and fitting the Origin standard function “Hyperbl” to the data.

[1] = system: Streptococcus pneumoniae DSM-20566; experiment: Antibacterial testing (MIC); type: cell-based; settings: DSM20566; Streptococcus pneumoniae DSM-20566, auxotrophic
Procedure: (§1) Figure S12. Screening a broad library (4−22) against ECF FolT2 transporter in the L. casei bacterial assay. Compou nds colored i n blue s howed inhibiti on bi gger than 20% when tested at 500 µ M.
(§2) Compounds were prepared as DMSO stocks a nd minimum inhibitory concentrations (MIC) were determined as de-scribed elsewhere. Bacteria were handled according to standard procedures and w ere obtained from the Ger man Col-lection of M icroorganisms and Cell Cultures (DSMZ) or were part of our interna l strain collection. In brief, bacterial cultures were diluted in Tryptic Soy Broth (TSB; 1.7% pepto ne casein, 0.3% peptone soymeal, 0.25% glucose, 0.5% NaCl, 0.25% K2HPO4; pH 7.3) or Müller– Hinton br oth (0.2% beef infusion solids, 1.75% casein hydr olysate, 0.15% starch, pH 7.4) to achieve a final inoculum of approximately 10 4 to 105 cfu/mL. Compou nd s were tested in serial dilution (0.06– […]
(§3) Organisms FolT EcfT EcfA1 EcfA2 Figure S13:
(§4) Lactobacillus delbrueckii A0A061BSU4 Q1GBJ0 Q1GBI9 numbers of the […]
(§5) Lactobacillus casei transporter (FolT,

[2] = system: Staphylococcus aureus str. Newman; experiment: Antibacterial testing (MIC); type: cell-based; settings: not auxotrophic
Procedure: as §1, §2, §3, §4, §5

[3] = system: Streptococcus pneumoniae DSM-11865 (PRSP); experiment: Antibacterial testing (MIC); type: cell-based; settings: auxotrophic
Procedure: as §1, §2, §3, §4, §5

[4] = Solubility of the compounds in citrate buffer (assay conditions); type: physicochemical
Procedure: The data were analyzed by using OriginPro 2018G (OriginLab Corporation, Northampton, MA, USA).

## O=C(O)c1cc(OCc2cccc3ccccc23)ccc1O [Compound 1, reference compound]
ECF FolT2 transporter; uptake into proteoliposomes, ECF FolT2 from L. delbrueckii
  IC50: 282 ± 108 µM

## O=C(O)CNCc1ccc(-c2ccc(Cl)cc2)o1 [Compound 2]
ECF FolT transporter; bacterial uptake assay L. casei
  inhibition of folic acid uptake: inactive up to: > 1.2 mM
ECF FolT2 transporter; proteoliposome uptake (in vitro assay, L. delbrueckii)
  IC50: > 1200 µM

## O=C(O)c1cccc(NCc2ccc(-c3ccc(Cl)cc3)o2)c1 [Compound 3]
[1]
  MIC: 21 µg/mL (≈ 64.1 µM)
[2]
  MIC: 23 µg/mL (≈ 70.2 µM)
[3]
  MIC: 10 µg/mL (≈ 30.5 µM)
ECF FolT transporter; L. casei based uptake assay
  Inhibition at 200 μM: 43% (IC50 = 204 ± 22 μM)
ECF FolT transporter; bacterial uptake assay, L. casei, 50 nM radiolabeled folic acid
  IC50: 204 ± 22 µM

## O=C(O)c1ccccc1NCc1ccc(-c2ccc(Cl)cc2)o1 [Compound 23]
ECF FolT transporter; 50 µM (not soluble above 50 μM), L. casei based uptake assay
  Inhibition at 50 µM: 11% at 50 µM
[4]
  solubility under the conditions of the assay: insoluble
[4]; citrate buffer with 5% DMSO, 96-well plates, pH 6, aqueous with cosolvent or surfactant or cyclodextrin, kinetic from dmso stock, citrate buffer, read-out: solubility limit (not soluble above)
  solubility: ≤ 50 µM

## O=C(O)c1ccc(NCc2ccc(-c3ccc(Cl)cc3)o2)cc1 [Compound 24]
ECF FolT transporter; 500 μM, L. casei based uptake assay
  Inhibition at 500 μM: n.i at 500 μM (n.i. = no inhibition (if inhibition < 10%))
ECF FolT transporter; up to 500 μM, L. casei uptake assay
  inhibition: no inhibition

## O=C(O)c1cccc(NCc2ccc(-c3cccc(Cl)c3)o2)c1 [Compound 25]
ECF FolT transporter; L. casei based uptake assay
  Inhibition at 200 μM: 41%

## O=C(O)c1cccc(NCc2ccc(-c3ccccc3Cl)o2)c1 [Compound 26]
ECF FolT transporter; L. casei based uptake assay
  Inhibition at 200 μM: 36%

## O=C(O)c1cccc(NCc2cc(-c3ccc(Cl)cc3)co2)c1 [Compound 27]
ECF FolT transporter; L. casei based uptake assay
  Inhibition at 200 μM: 8%

## Nc1nc(=O)c2nc(CNc3ccc(C(=O)N[C@@H](CCC(=O)O)C(=O)O)cc3)cnc2[nH]1 [folic acid]
ECF FolT transporter; read-out: KM of folate uptake, substrate-dependent folate uptake in L. casei, PBS (50 mM, pH 7.4, 2% Glucose)
  Km: 0.049 µM
ECF FolT transporter; substrate-dependent folate uptake in L. casei, PBS (50 mM, pH 7.4, 2% Glucose)
  Vmax of folate uptake: 83 (±2) counts per minute (cpm)
